In patent publication US9012493B2, “1-heterodiene derivative and pest control agent” (Nippon Soda Co., Ltd., priority 2009, dated 2015):

How the values were obtained:
Assay type in all cases: in vivo
[1] = tested on: Twospotted Spider Mite (Tetranychus Urticae Koch); experiment: Efficacy test against twospotted spider mite, spray on kidney bean plant; settings: 125 ppm, wettable powder diluted with water, sprayed, female adults with resistance to an organophosphorus agent on kidney bean, after 3 days
Method: The wettable powder obtained according to Formulation of Formulation Example 1 was diluted with water so as to control the concentration of the compound to 125 ppm. Seventeen female adults of twospotted spider mite with resistance to an organophosphorus agent were inoculated on a first true leaf of a kidney bean plant (approximately 7 to 10 days after sprouting) sown in a 3 sun/size pot (9 cm). The diluted solution was sprayed. The pot was placed in a temperature-controlled room at a temperature of 25° C. and a humidity of 65%. After 3 days, the adulticidal rate was examined. The test was repeated twice.

[2] = tested on: Cotton Aphid (Aphis Gossypii); experiment: Efficacy test against cotton aphid, spray on cucumber plant; settings: 125 ppm, emulsifiable concentrate diluted with water, sprayed over cucumber plant with nymphs, after 5 days, 25° C.
Method: (§1) Test Examples of the pest control agent thus obtained according to the present invention are shown below. In respective Test Examples, the insecticidal rate (%) was determined by the following calculation equation. Insecticidal rate (%)=(number of dead pests/number of released pests)×100
The emulsifiable concentrate obtained according to Formulation of Formulation Example 2 was diluted with water so as to control the concentration of the compound to 125 ppm. Adults of cotton aphids were inoculated to a cucumber plant (approximately 10 days after sprouting) sown in a 3 sun/size pot (9 cm). After 1 day, adult aphids were removed and the diluted solution was sprayed over the cucumber plant on which delivered nymphs are parasitic. The pot was placed in a temperature-controlled room at a temperature of 25° C. and a humidity of 65%. After 5 days, life and death were examined and the insecticidal rate was determined. The test was repeated twice.

[3] = tested on: Sweetpotato Whitefly (Bemisia Tabaci); experiment: Efficacy test against sweetpotato whitefly, sprayed tomato leaf; settings: 125 ppm, emulsifiable concentrate diluted with water, adults (type B), after 2 days, 25° C.
Method: as §1
The emulsifiable concentrate obtained according to Formulation of Formulation Example 2 was diluted with water so as to control the concentration of the compound to 125 ppm. The diluted solution was sprayed over a tomato leaf obtained by cutting and then air-dried. Using absorbent cotton, the leaf was fixed to a flask so that a front surface of the leaf faces upward. Seven pairs of adults of sweetpotato whitefly (type B) were inoculated in this container, and the container was placed in a temperature-controlled room at a temperature of 25° C. and a humidity of 65%. After 2 days, life and death were examined and the insecticidal rate was determined. The test was repeated twice.

[4] = tested on: Rice Armyworm (Mythimna Separata); experiment: Efficacy test against rice armyworm, corn leaf dip; settings: 125 ppm, emulsifiable concentrate diluted with water, corn leaves immersed, second instar larvae, after 5 days, 25° C.
Method: as §1
The emulsifiable concentrate obtained according to Formulation of Formulation Example 2 was diluted with water so as to control the concentration of the compound to 125 ppm. Leaves of corn were immersed in this diluted solution for 30 seconds and then air-dried. The leaves were put in a petri dish on which a filter paper is laid, and then five second instar larvae of rice armyworm were inoculated. After covering the petri dish with a glass lid, the petri dish was placed in a temperature-controlled room at a temperature of 25° C. and a humidity of 65%. After 5 days, life and death were examined and the insecticidal rate was determined. The test was repeated twice.

CC(C)=C1CCC(=CSc2ccccc2)C(=Nc2ccc(C)cc2)S1 (mixture of isomers) [Compound 6-1]
100%: adulticidal rate [1] | insecticidal rate [2] | insecticidal rate [3] | insecticidal rate [4]

C=C1SC(=Nc2ccc(C)cc2)C(=CSc2ccccc2)CC1c1ccccc1 (racemic) [Compound 2-15]
100%: adulticidal rate [1] | insecticidal rate [2] | insecticidal rate [3] | insecticidal rate [4]

CC(C)=C1CCC(=C\Sc2ccccc2)/C(=N/c2ccc(Cl)cc2)S1 [Compound 2-2, (4-chloro-phenyl)-{6-isopropylidene-3-[1-phenylsulfanyl-(E)-methylidene]-tetrahydro-thiopyran-(2Z)-ylidene}-amine]
100%: adulticidal rate [1] | insecticidal rate [2] | insecticidal rate [3] | insecticidal rate [4]

CC/C=C1/CCC(=C\Sc2ccccc2)/C(=N/c2ccc(Cl)cc2)S1 [Compound 2-3]
100%: adulticidal rate [1] | insecticidal rate [2] | insecticidal rate [3] | insecticidal rate [4]

C=C1CCC(=CSc2ccccc2)C(=Nc2ccc(C)cc2)S1 [Compound 2-4]
100%: adulticidal rate [1] | insecticidal rate [2] | insecticidal rate [3] | insecticidal rate [4]

C=C1CCC(=CSc2ccc(F)cc2)C(=Nc2ccc(C)cc2)S1 [Compound 2-6]
100%: adulticidal rate [1] | insecticidal rate [2] | insecticidal rate [3] | insecticidal rate [4]

C=C1SC(=N\c2ccc(C)cc2)/C(=C/Sc2ccccc2)CC1(C)C [Compound 2-11, {5,5-dimethyl-6-methylene-3-[1-phenylsulfanyl-(E)-methylidene]-tetrahydro-thiopyran-(2Z)-ylidene}-p-tolyl-amine]
100%: adulticidal rate [1] | insecticidal rate [2] | insecticidal rate [3] | insecticidal rate [4]

C=C1SC(=Nc2ccc(Cl)cc2)C(=CSc2ccccc2)CC1(C)C [Compound 2-12]
100%: adulticidal rate [1] | insecticidal rate [2] | insecticidal rate [3] | insecticidal rate [4]

C=C1SC(=Nc2ccc(Cl)cc2)C(=CSc2ccc(F)cc2)CC1(C)C [Compound 2-13]
100%: adulticidal rate [1] | insecticidal rate [2] | insecticidal rate [3] | insecticidal rate [4]

C=C1CCC(=CSc2ccccc2)C(=[NH+]c2ccc(C)cc2)S1.F[B-](F)(F)F [Compound 2-14]
100%: adulticidal rate [1] | insecticidal rate [2] | insecticidal rate [3] | insecticidal rate [4]

C=C1SC(=Nc2ccc(C)cc2)C(=CSc2ccccc2)CC12CCCCC2 [Compound 2-17]
100%: adulticidal rate [1] | insecticidal rate [2] | insecticidal rate [3] | insecticidal rate [4]

C=C1SC(=Nc2ccc(C)cc2)C(=CSc2cccc(OC)c2)CC1(C)C [Compound 2-20]
100%: adulticidal rate [1] | insecticidal rate [2] | insecticidal rate [3] | insecticidal rate [4]

C=C1SC(=Nc2ccc(OC)c(C)c2)C(=CSc2ccccc2)CC1(C)C [Compound 2-34]
100%: adulticidal rate [1] | insecticidal rate [2] | insecticidal rate [3] | insecticidal rate [4]

C=C1SC(=Nc2ccc(Cl)c(Cl)c2)C(=CSc2ccccc2)CC1(C)C [Compound 2-35]
100%: adulticidal rate [1] | insecticidal rate [2] | insecticidal rate [3] | insecticidal rate [4]

C=C1SC(=Nc2cccc(C(F)(F)F)c2)C(=CSc2ccccc2)CC1(C)C [Compound 2-36]
100%: adulticidal rate [1] | insecticidal rate [2] | insecticidal rate [3] | insecticidal rate [4]

C=C1SC(=Nc2ccc(OC)cc2C)C(=CSc2ccccc2)CC1(C)C [Compound 2-40]
100%: adulticidal rate [1] | insecticidal rate [2] | insecticidal rate [3] | insecticidal rate [4]

C=C1SC(=Nc2ccc(OC)cc2C)C(=CSc2ccc(F)cc2)CC1(C)C [Compound 2-41]
100%: adulticidal rate [1] | insecticidal rate [2] | insecticidal rate [3] | insecticidal rate [4]

C=C1SC(=Nc2ccc(OC)cc2)C(=CSc2ccc(F)cc2)CC1(C)C [Compound 2-46]
100%: adulticidal rate [1] | insecticidal rate [2] | insecticidal rate [3] | insecticidal rate [4]

C=C1SC(=Nc2ccc(C)cc2)C(=CSc2ccc(F)cc2)CC1(C)C [Compound 2-48]
100%: adulticidal rate [1] | insecticidal rate [2] | insecticidal rate [3] | insecticidal rate [4]

C=C1SC(=Nc2ccc(OC)cc2)C(=CSc2ccccc2OC)CC1(C)C [Compound 2-49]
100%: adulticidal rate [1] | insecticidal rate [2] | insecticidal rate [3] | insecticidal rate [4]

C=C1SC(=Nc2ccc(C)cc2)C(=CSc2ccccc2)CC12CCOCC2 [Compound 2-56]
100%: adulticidal rate [1] | insecticidal rate [2] | insecticidal rate [3] | insecticidal rate [4]

C=C1SC(=Nc2ccc(C)cc2C)C(=CSc2ccccc2)CC1(C)C [Compound 2-64]
100%: adulticidal rate [1] | insecticidal rate [2] | insecticidal rate [3] | insecticidal rate [4]

C=C1SC(=Nc2ccc(C)cc2)C(=CSc2ccccc2)CC1CC (stereo not shown) [Compound 2-68]
100%: adulticidal rate [1] | insecticidal rate [2] | insecticidal rate [3] | insecticidal rate [4]

C=C1SC(=Nc2ccc(OC)cc2)C(=CSc2ccc(C#N)cc2)CC1(C)C [Compound 2-70]
100%: adulticidal rate [1] | insecticidal rate [2] | insecticidal rate [3] | insecticidal rate [4]

C=C1SC(=Nc2ccc(C)cc2)C(=CSc2cccs2)CC1(C)C [Compound 2-71]
100%: adulticidal rate [1] | insecticidal rate [2] | insecticidal rate [3] | insecticidal rate [4]

C=C1SC(=Nc2ccc(C)cc2)C(=CSc2ccc(C#N)cc2)CC1(C)C [Compound 2-72]
100%: adulticidal rate [1] | insecticidal rate [2] | insecticidal rate [3] | insecticidal rate [4]

C=C1SC(=Nc2ccc(C)cc2)C(=CSc2ccccc2)CC1CCC (stereo not shown) [Compound 2-75]
100%: adulticidal rate [1] | insecticidal rate [2] | insecticidal rate [3] | insecticidal rate [4]

C=C1SC(=Nc2ccc(C)cc2)C(=CSc2ccccc2)CC1C (stereo not shown) [Compound 2-76]
100%: adulticidal rate [1] | insecticidal rate [2] | insecticidal rate [3] | insecticidal rate [4]

C=C1SC(=Nc2ccc(C)cc2)C(=CSc2cccs2)CC1C (stereo not shown) [Compound 2-77]
100%: adulticidal rate [1] | insecticidal rate [2] | insecticidal rate [3] | insecticidal rate [4]

C=C1SC(=Nc2ccc(C)cc2)C(=CSc2ccsc2)CC1(C)C [Compound 2-78]
100%: adulticidal rate [1] | insecticidal rate [2] | insecticidal rate [3] | insecticidal rate [4]

C=C1SC(=Nc2ccc(C)cc2)C(=CSc2ccc(C)s2)CC1(C)C [Compound 2-79]
100%: adulticidal rate [1] | insecticidal rate [2] | insecticidal rate [3] | insecticidal rate [4]

C=C1SC(=Nc2ccc(C)cc2)C(=CSc2ccc(OC)s2)CC1(C)C [Compound 2-80]
100%: adulticidal rate [1] | insecticidal rate [2] | insecticidal rate [3] | insecticidal rate [4]

C=C1SC(=Nc2ccc(OC)cc2)C(=CSc2ccsc2)CC1(C)C [Compound 2-81]
100%: adulticidal rate [1] | insecticidal rate [2] | insecticidal rate [3] | insecticidal rate [4]

C=C1SC(=Nc2ccc(OC)cc2)C(=CSc2ccc(C)s2)CC1(C)C [Compound 2-83]
100%: adulticidal rate [1] | insecticidal rate [2] | insecticidal rate [3] | insecticidal rate [4]
